These results are taken from DBAASP.

≈ marks a conversion by molar mass, not a printed value.

Some test systems named below: Bacillus megaterium F04; Aspergillus fumigatus; Bacillus megaterium; Escherichia coli 363; Klebsiella pneumoniae; Listeria monocytogenes; Salmonella typhimurium; Enterococcus faecium; Escherichia coli; Pseudomonas aeruginosa; Staphylococcus aureus.
Common to all, as to test: ≥ marks a high value that may be exact or a test limit, other limits are often not marked, values filed in µg/mL are converted to µM
Assay [1] concerns Legionella bozemanae ATCC 33217.
Assay [2] concerns Legionella feeleii ATCC 35072.
Assay [3] relates to Legionella longbeachae ATCC 33484.
In assay [4] the test system is Legionella micdadei ATCC 33218.
In assay [5] the test system is Legionella oakridgensis ATCC 33761.
Assay [6] concerns Legionella pneumophila ATCC 33155.
The subject of assay [7] is Legionella pneumophila ATCC 33215.
In assay [8] the test system is Legionella pneumophila ATCC 33216.
The test system of assay [9] is Legionella pneumophila Corby.
Assay [10] has as its system Legionella pneumophila Lens.
Assay [11] has as its system Legionella pneumophila Paris.
For assay [12], the system named is Escherichia coli ATCC 25922.
Assay [13] relates to Pseudomonas aeruginosa ATCC 27853.
Assay [14] deals with Staphylococcus aureus ATCC 29313.
Assay [15] has as its system Xanthomonas axonopodis pv. citri.
The test system of assay [16] is Staphylococcus aureus ATCC 49230.
The test system of assay [17] is Staphylococcus epidermidis ATCC 35984.
Assay [18] relates to Staphylococcus haemolyticus.
The test system of assay [19] is Aspergillus flavus KCTC 1375.
Assay [20] relates to Candida albicans ATCC 90028.
The subject of assay [21] is Enterococcus faecium ATCC 19434.
For assay [22], the system named is Escherichia coli O157:H7 ATCC 43895.
The test system of assay [23] is Malassezia furfur KCTC 7744.
The subject of assay [24] is Staphylococcus aureus ATCC 25923.
Assay [25] relates to Acinetobacter baumannii NM8.
Assay [26] deals with Escherichia coli ATCC 25726.
In assay [27] the test system is Klebsiella pneumoniae ATCC 700603.
Assay [28] has as its system Staphylococcus epidermidis RP62A/1.
For assay [29], the system named is Staphylococcus epidermidis RP62A.
Assay [30] concerns Stenotrophomonas maltophilia B32/4.

`CC[C@H](C)[C@H](NC(=O)[C@H](CC(C)C)NC(=O)[C@H](CCCCN)NC(=O)[C@@H](NC(=O)[C@H](CC(C)C)NC(=O)[C@H](CC(=O)O)NC(=O)CNC(=O)[C@@H](NC(=O)[C@@H](NC(=O)[C@H](CO)NC(=O)[C@@H](NC(=O)[C@@H](NC(=O)[C@H](CC(=O)O)NC(=O)[C@H](C)NC(=O)[C@H](C)NC(=O)[C@@H](N)CCSC)[C@@H](C)CC)[C@@H](C)CC)[C@@H](C)O)[C@@H](C)CC)C(C)C)C(=O)N[C@H](C(=O)N[C@@H](CC(N)=O)C(=O)N[C@H](C(=O)N[C@H](C(=O)N[C@@H](CCCCN)C(=O)N[C@@H](CCCCN)C(=O)N[C@@H](Cc1ccccc1)C(=O)N[C@@H](CCC(N)=O)C(=O)N[C@@H](CCCCN)C(=O)O)C(C)C)[C@@H](C)O)[C@@H](C)CC` [MAADIISTIGDLVKLIINTVKKFQK]: the MIC (usually the least concentration at which growth counts as inhibited) against Bacillus megaterium F04 amounted to 4.35 µM (≈ 12 µg/mL); in assay [1], 18.1 µM (≈ 50 µg/mL); in [2] it was 18.1 µM (≈ 50 µg/mL); in [3] it was 18.1 µM (≈ 50 µg/mL); in assay [4], 18.1 µM (≈ 50 µg/mL); in [5] it was 18.1 µM (≈ 50 µg/mL). In addition, the MIC in assay [6] amounted to 18.1 µM (≈ 50 µg/mL); in assay [7] it was 18.1 µM (≈ 50 µg/mL); in [8], 18.1 µM (≈ 50 µg/mL); in [9], 18.1 µM (≈ 50 µg/mL); in [10] it was 1.09 µM (≈ 3 µg/mL); in [11] it was 18.1 µM (≈ 50 µg/mL).

Take `CC(C)C[C@H](NC(=O)[C@H](CO)NC(=O)[C@H](CCCCN)NC(=O)[C@H](CC(C)C)NC(=O)[C@H](CCCCN)NC(=O)[C@H](CC(=O)O)NC(=O)[C@H](CC(C)C)NC(=O)[C@H](Cc1c[nH]c2ccccc12)NC(=O)[C@H](C)N)C(=O)NCC(=O)N[C@@H](CCCCN)C(=O)N[C@H](C(=O)N[C@H](C(=O)NCC(=O)O)C(C)C)C(C)C` [AWLDKLKSLGKVVG]: the minimal inhibitory concentration (MIC) was 85 µM (≈ 129 µg/mL) in [12], 170 µM (≈ 257 µg/mL) in assay [13], at least 170 µM in assay [14] and 5 µM (≈ 7.57 µg/mL) in [15].

In the case of `CC(C)C[C@H](NC(=O)[C@H](CC(C)C)NC(=O)[C@H](Cc1ccccc1)NC(=O)[C@H](CC(C)C)NC(=O)[C@H](CC(C)C)NC(=O)[C@@H](N)CC(C)C)C(=O)N[C@@H](CCCCN)C(=O)N[C@@H](CCCCN)C(=O)N[C@@H](CCCN=C(N)N)C(=O)N[C@@H](CCCCN)C(=O)N[C@@H](CCCCN)C(=O)N[C@@H](CCCN=C(N)N)C(=O)N[C@@H](CCCCN)C(=O)N[C@@H](Cc1ccc(O)cc1)C(=O)O` [LLLFLLKKRKKRKY], the minimum inhibitory concentration (MIC) amounted to 3.6 µM (≈ 6.65 µg/mL) in the assay with Aspergillus fumigatus; 8.66 µM (≈ 16 µg/mL) in [12]; 2.17 µM (≈ 4 µg/mL) in [13]; 2.17 µM (≈ 4 µg/mL) in assay [16]; 1.08 µM (≈ 2 µg/mL) in assay [17].

As for `CC[C@H](C)[C@H](NC(=O)[C@H](CCSC)NC(=O)[C@H](CC(C)C)NC(=O)[C@H](CC(C)C)NC(=O)[C@@H](NC(=O)[C@H](Cc1c[nH]c2ccccc12)NC(=O)[C@H](CC(C)C)NC(=O)[C@H](Cc1c[nH]c2ccccc12)NC(=O)[C@@H](NC(=O)[C@H](CCCCN)NC(=O)[C@H](CO)NC(=O)[C@H](CCCNC(=N)N)NC(=O)[C@H](CC(C)C)NC(=O)CN)[C@@H](C)CC)C(C)C)C(=O)N[C@@H](Cc1c[nH]c2ccccc12)C(=O)N[C@@H](CCC(N)=O)C(=O)N[C@@H](CCC(=O)O)C(=O)N[C@@H](CO)C(=O)N[C@@H](CC(N)=O)C(=O)N[C@@H](CCCCN)C(=O)N[C@@H](Cc1ccccc1)C(=O)N[C@@H](CCCCN)C(=O)N[C@@H](CCCCN)C(=O)N[C@@H](CCSC)C(=O)O` [GLRSKIWLWVLLMIWQESNKFKKM], the MIC against Bacillus megaterium is 0.4 µM (≈ 1.21 µg/mL); in the assay with Escherichia coli 363, 3.1 µM (≈ 9.41 µg/mL); against Klebsiella pneumoniae it was 12.5 µM (≈ 37.9 µg/mL); against Listeria monocytogenes, 0.4 µM (≈ 1.21 µg/mL); in the assay with Salmonella typhimurium, 3.1 µM (≈ 9.41 µg/mL); in assay [18] it was 12.5 µM (≈ 37.9 µg/mL).

`CC(C)C[C@H](NC(=O)[C@H](Cc1ccc(O)cc1)NC(=O)[C@H](Cc1cnc[nH]1)NC(=O)[C@@H](NC(=O)[C@H](CC(C)C)NC(=O)[C@H](C)NC(=O)[C@H](C)NC(=O)[C@H](CCCCN)NC(=O)CNC(=O)[C@@H](NC(=O)[C@H](Cc1cnc[nH]1)NC(=O)[C@H](CCCCN)NC(=O)CNC(=O)[C@@H](NC(=O)[C@H](Cc1cnc[nH]1)NC(=O)[C@H](C)NC(=O)[C@H](C)NC(=O)[C@H](CCCCN)NC(=O)[C@@H](N)CCCCN)C(C)C)C(C)C)[C@@H](C)O)C(N)=O` [KKAAHVGKHVGKAALTHYL]: the MIC in assay [19] was at least 40 µM; in assay [20] it was at least 40 µM; in assay [21], at least 40 µM; against Enterococcus faecium, at least 40 µM; in [22] it was 28.3 µM (≈ 57.4 µg/mL); against Escherichia coli, 28.3 µM (≈ 57.4 µg/mL). For the same molecule, the minimal inhibitory concentration (MIC) was at least 56.6 µM in assay [23]; 40 µM (≈ 81.1 µg/mL) in assay [13]; 40 µM (≈ 81.1 µg/mL) in the assay with Pseudomonas aeruginosa; 28.3 µM (≈ 57.4 µg/mL) in [24]; 28.3 µM (≈ 57.4 µg/mL) in the assay with Staphylococcus aureus.

Consider `CC[C@H](C)[C@H](N)C(=O)N[C@@H](CC(C)C)C(=O)NCC(=O)N[C@@H](CCCCN)C(=O)N[C@@H](CC(C)C)C(=O)N[C@@H](CC(C)C)C(=O)N[C@@H](CCCCN)C(=O)N[C@H](C(=O)N[C@@H](C)C(=O)N[C@@H](C)C(=O)N[C@@H](CCCCN)C(=O)N[C@@H](CC(C)C)C(=O)N[C@@H](CC(C)C)C(=O)N[C@@H](CO)C(=O)N[C@@H](CC(N)=O)C(=O)N[C@@H](CC(C)C)C(N)=O)[C@@H](C)O` [ILGKLLKTAAKLLSNL], for which the MIC in assay [25] worked out at 4 µM (≈ 6.78 µg/mL); in assay [20], 8 µM (≈ 13.6 µg/mL); in assay [26], 16 µM (≈ 27.1 µg/mL); in assay [27], 16 µM (≈ 27.1 µg/mL); in [13] it was 8 µM (≈ 13.6 µg/mL); in assay [24], 4 µM (≈ 6.78 µg/mL). For the same molecule, the minimum inhibitory concentration (MIC) came to 2 µM (≈ 3.39 µg/mL) in [28], 2 µM (≈ 3.39 µg/mL) in assay [29] and 4 µM (≈ 6.78 µg/mL) in [30].
